We go through five compounds from US12391737B2, “Soluble NPY2 receptor agonists” (Boehringer Ingelheim International GmbH, priority 2020, dated 2025).

Usually Ki stands for a measure of affinity in units of concentration, obtained from inhibition or displacement.

Data set [1] deals with T1, Human Neuropeptide Y2 Receptor (Homo sapiens, UniProt P49146).
T1 construct: purchased CHEMICON HTS066M
T1 sequence (P49146 1-381): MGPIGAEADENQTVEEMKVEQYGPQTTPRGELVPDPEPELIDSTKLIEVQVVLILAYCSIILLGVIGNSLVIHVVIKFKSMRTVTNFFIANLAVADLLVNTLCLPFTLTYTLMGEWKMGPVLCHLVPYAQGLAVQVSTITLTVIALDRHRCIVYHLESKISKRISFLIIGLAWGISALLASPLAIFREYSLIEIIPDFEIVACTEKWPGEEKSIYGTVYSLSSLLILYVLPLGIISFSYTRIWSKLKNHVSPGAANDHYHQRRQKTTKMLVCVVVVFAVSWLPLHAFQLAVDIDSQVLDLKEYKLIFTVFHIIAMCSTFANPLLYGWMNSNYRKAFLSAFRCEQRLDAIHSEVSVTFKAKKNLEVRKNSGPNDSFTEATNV
Nature of the data set: Radioligand binding competition assay (RLB). The following applies: Table 3, 125I-PYY(1-36) competition; read-out: Ki. In short, it runs like this: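 Filtration binding assay on human Y2 receptor membrane preparation, 0.5 μg protein per well, in 50 mM HEPES pH 7.4 containing 5 mM MgCl2, 1 mM CaCl2 and 0.2% ovalbumin. Plates shake 2 h at room temperature before harvest and scintillation counting.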

A short description of data set [2]: Solubility determination. The conditions noted are these: for Sol6: pH 6; for Sol7: pH 7. In short, it runs like this:
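Shake-flask style: 10 mg/ml peptide (TFA salt), 0.1 M sodium diphosphate pH 6.4/7.0, 600 rpm, 2 h, RT; filter; dilute 1 mg/ml in 50% MeCN; RP-UPLC, 0–100% B over 2 min, 50 °C. Solubility = sample/control area ratio. Final pH recorded.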

*1 amine or outer side, *2 acyl side, *3 side chain or, on linkers, in order; H or OH if unused. Where a SMILES comes first, the peptide text is derived from it. Side-chain parts run from the residue outwards. The star is where a group is joined. C18 diacid = O=C(O)CCCCCCCCCCCCCCCCC(=O)*; γGlu = O=C(O)[C@H](CCC(=O)[*:2])N[*:1]; Isovaleryl = CC(C)CC(=O)*; Ahx = NCCCCCC(=O)O

As to `CC(C)CC(=O)N[C@@H](C)C(=O)N1CCC[C@H]1C(=O)N[C@@H](CCC(=O)O)C(=O)N[C@@H](CCCCNC(=O)CCCCCNC(=O)CC[C@H](NC(=O)CCCCCCCCCCCCCCCCC(=O)O)C(=O)O)C(=O)N1CCC[C@H]1C(=O)N[C@@H](CCC(=O)O)C(=O)N[C@@H](CCC(=O)O)C(=O)N[C@@H](CC(=O)O)C(=O)N[C@@H](CO)C(=O)N[C@@H](CO)C(=O)N1CCC[C@H]1C(=O)N[C@@H](CCC(=O)O)C(=O)N[C@@H](CCC(=O)O)C(=O)N[C@@H](CC(C)C)C(=O)N[C@@H](CCC(N)=O)C(=O)N[C@@H](CCCNC(=N)N)C(=O)N[C@@H](Cc1ccc(O)cc1)C(=O)N[C@@H](Cc1ccc(O)cc1)C(=O)N[C@H](C(=O)N[C@@H](C)C(=O)N[C@@H](CC(C)C)C(=O)N[C@@H](CCCNC(=N)N)C(=O)N[C@@H](Cc1c[nH]cn1)C(=O)N[C@@H](Cc1ccc(O)cc1)C(=O)N[C@@H](Cc1ccc(O)cc1)C(=O)N[C@@H](CC(N)=O)C(=O)N[C@@H](Cc1c[nH]c2ccccc12)C(=O)N[C@@H](CC(C)C)C(=O)N[C@H](C(=O)N[C@@H](CCCNC(=N)N)C(=O)N[C@@H](CCC(N)=O)C(=O)N[C@@H](CCCNC(=N)N)C(=O)N[C@@H](Cc1ccc(O)cc1)C(N)=O)[C@@H](C)O)C(C)C` [Compound 24, N{alpha-4}-(3-methylbutanoyl)-N{epsilon-7}-(6-[(4S)-4-carboxy-4-(17-carboxyheptadecanamido)butanamido]hexanoyl)[4A,7K,9E,12S,18Q,22V,23A,28Y,30W,31L]-hPYY(4-36)], the Ki in data set [1] stood at 3.39 nM. Besides, in data set [2], the “Sol6” value came out at 9.8 mg/mL and the “Sol7” value came out at 10.0 mg/mL.
As to `CC[C@H](C)[C@H](NC(=O)[C@H](Cc1ccc(O)cc1)NC(=O)[C@H](Cc1ccc(O)cc1)NC(=O)[C@H](CCCNC(=N)N)NC(=O)[C@H](CCC(N)=O)NC(=O)[C@H](CC(C)C)NC(=O)[C@H](CCC(=O)O)NC(=O)[C@H](CCC(=O)O)NC(=O)[C@@H]1CCCN1C(=O)[C@@H](NC(=O)[C@H](C)NC(=O)[C@H](CC(=O)O)NC(=O)[C@H](C)NC(=O)[C@H](CCC(=O)O)NC(=O)[C@@H]1CCCN1C(=O)[C@H](CCCCNC(=O)CCCCCNC(=O)CC[C@H](NC(=O)CCCCCCCCCCCCCCCCC(=O)O)C(=O)O)NC(=O)[C@H](CCC(=O)O)NC(=O)[C@@H]1CCCN1C(=O)[C@H](C)NC(=O)CC(C)C)[C@@H](C)O)C(=O)N[C@@H](CO)C(=O)N[C@@H](CC(C)C)C(=O)N[C@@H](CCCNC(=N)N)C(=O)N[C@@H](Cc1c[nH]cn1)C(=O)N[C@@H](Cc1ccc(O)cc1)C(=O)N[C@@H](Cc1ccc(O)cc1)C(=O)N[C@@H](CC(N)=O)C(=O)N[C@@H](Cc1c[nH]c2ccccc12)C(=O)N[C@@H](CC(C)C)C(=O)N[C@H](C(=O)N[C@@H](CCCNC(=N)N)C(=O)N[C@@H](CCC(N)=O)C(=O)N[C@@H](CCCNC(=N)N)C(=O)N[C@@H](Cc1ccc(O)cc1)C(N)=O)[C@@H](C)O` [Compound 25, N{alpha-4}-(3-methylbutanoyl)-N{epsilon-7}-(6-[(4S)-4-carboxy-4-(17-carboxyheptadecanamido)butanamido]hexanoyl)[4A,7K,9E,10A,13T,18Q,22I,28Y,30W,31L]-hPYY(4-36)] (Isovaleryl-APEK([Ahx-γGlu-C18 diacid])PEADATPEELQRYYISLRHYYNWLTRQRY-NH2), the Ki in data set [1] turned out to be 1.55 nM. Besides, in data set [2], the “Sol6” value came out at 9.3 mg/mL and the “Sol7” value worked out at 9.3 mg/mL.
Take `CC(C)CC(=O)N[C@@H](C)C(=O)N1CCC[C@H]1C(=O)N[C@@H](CCC(=O)O)C(=O)N[C@@H](CCCCNC(=O)CCCCCNC(=O)CC[C@H](NC(=O)CCCCCCCCCCCCCCCCC(=O)O)C(=O)O)C(=O)N1CCC[C@H]1C(=O)N[C@@H](CCC(=O)O)C(=O)N[C@@H](CCC(=O)O)C(=O)N[C@@H](CC(=O)O)C(=O)N[C@@H](C)C(=O)N[C@@H](CCC(=O)O)C(=O)N1CCC[C@H]1C(=O)N[C@@H](CCC(=O)O)C(=O)N[C@@H](CCC(=O)O)C(=O)N[C@@H](CO)C(=O)N[C@@H](CCC(N)=O)C(=O)N[C@@H](CCCNC(=N)N)C(=O)N[C@@H](Cc1ccc(O)cc1)C(=O)N[C@@H](Cc1ccc(O)cc1)C(=O)N[C@H](C(=O)N[C@@H](CO)C(=O)N[C@@H](CC(C)C)C(=O)N[C@@H](CCCNC(=N)N)C(=O)N[C@@H](Cc1c[nH]cn1)C(=O)N[C@@H](Cc1ccc(O)cc1)C(=O)N[C@@H](Cc1ccc(O)cc1)C(=O)N[C@@H](CC(N)=O)C(=O)N[C@@H](Cc1c[nH]c2ccccc12)C(=O)N[C@@H](CC(C)C)C(=O)N[C@H](C(=O)N[C@@H](CCCNC(=N)N)C(=O)N[C@@H](CCC(N)=O)C(=O)N[C@@H](CCCNC(=N)N)C(=O)N[C@@H](Cc1ccc(O)cc1)C(N)=O)[C@@H](C)O)C(C)C` [Compound 27, N{alpha-4}-(3-methylbutanoyl)-N{epsilon-7}-(6-[(4S)-4-carboxy-4-(17-carboxyheptadecanamido)butanamido]hexanoyl)[4A,7K,9E,13E,17S,18Q,22V,28Y,30W,31L]-hPYY(4-36)]: the Ki in data set [1] stood at 10.5 nM. In data set [2], the “Sol6” value amounted to 9.1 mg/mL and the “Sol7” value was found to be 9.4 mg/mL.
Take `CC[C@H](C)[C@H](NC(=O)[C@H](CCC(=O)O)NC(=O)[C@H](CCC(=O)O)NC(=O)[C@@H]1CCCN1C(=O)[C@@H](NC(=O)[C@H](C)NC(=O)[C@H](CC(=O)O)NC(=O)[C@H](CCC(=O)O)NC(=O)[C@@H]1CCCN1C(=O)[C@@H]1CCCN1C(=O)[C@H](CCCCNC(=O)CCCCCNC(=O)CC[C@H](NC(=O)CCCCCCCCCCCCCCCCC(=O)O)C(=O)O)NC(=O)[C@H](CCC(=O)O)NC(=O)[C@@H]1CCCN1C(=O)[C@H](C)NC(=O)CC(C)C)[C@@H](C)O)C(=O)N[C@@H](CCC(N)=O)C(=O)N[C@@H](CCCNC(=N)N)C(=O)N[C@@H](Cc1ccc(O)cc1)C(=O)N[C@@H](Cc1ccc(O)cc1)C(=O)N[C@H](C(=O)N[C@@H](CO)C(=O)N[C@@H](CC(C)C)C(=O)N[C@@H](CCCNC(=N)N)C(=O)N[C@@H](Cc1c[nH]cn1)C(=O)N[C@@H](Cc1ccc(O)cc1)C(=O)N[C@@H](Cc1ccc(O)cc1)C(=O)N[C@@H](CC(N)=O)C(=O)N[C@@H](Cc1c[nH]c2ccccc12)C(=O)N[C@@H](CC(C)C)C(=O)N[C@H](C(=O)N[C@@H](CCCNC(=N)N)C(=O)N[C@@H](CCC(N)=O)C(=O)N[C@@H](CCCNC(=N)N)C(=O)N[C@@H](Cc1ccc(O)cc1)C(N)=O)[C@@H](C)O)C(C)C` [Compound 28, N{alpha-4}-(3-methylbutanoyl)-N{epsilon-7}-(6-[(4S)-4-carboxy-4-(17-carboxyheptadecanamido)butanamido]hexanoyl)[4A,7K,9P,13T,17I,18Q,22V,28Y,30W,31L]-hPYY(4-36)]: the Ki in data set [1] amounted to 0.49 nM. For the same compound, in data set [2], the “Sol6” value is more than 10.0 mg/mL and the “Sol7” value was more than 10.0 mg/mL.
Consider `CC(C)CC(=O)N[C@@H](C)C(=O)N1CCC[C@H]1C(=O)N[C@@H](CCC(=O)O)C(=O)N[C@@H](CCCCNC(=O)CCCCCNC(=O)CC[C@H](NC(=O)CCCCCCCCCCCCCCCCC(=O)O)C(=O)O)C(=O)N1CCC[C@H]1C(=O)N[C@@H](CCC(=O)O)C(=O)N[C@@H](C)C(=O)N[C@@H](CC(=O)O)C(=O)N[C@@H](CO)C(=O)N[C@@H](CO)C(=O)N1CCC[C@H]1C(=O)N[C@@H](CCC(=O)O)C(=O)N[C@@H](CCC(=O)O)C(=O)N[C@@H](CC(C)C)C(=O)N[C@@H](CCC(N)=O)C(=O)N[C@@H](CCCNC(=N)N)C(=O)N[C@@H](Cc1ccc(O)cc1)C(=O)N[C@@H](Cc1ccc(O)cc1)C(=O)N[C@H](C(=O)N[C@@H](CO)C(=O)N[C@@H](CC(C)C)C(=O)N[C@@H](CCCNC(=N)N)C(=O)N[C@@H](Cc1c[nH]cn1)C(=O)N[C@@H](Cc1ccc(O)cc1)C(=O)N[C@@H](Cc1ccc(O)cc1)C(=O)N[C@@H](CC(N)=O)C(=O)N[C@@H](Cc1c[nH]c2ccccc12)C(=O)N[C@@H](CC(C)C)C(=O)N[C@H](C(=O)N[C@@H](CCCNC(=N)N)C(=O)N[C@@H](CCC(N)=O)C(=O)N[C@@H](CCCNC(=N)N)C(=O)N[C@@H](Cc1ccc(O)cc1)C(N)=O)[C@@H](C)O)C(C)C` [Compound 29, N{alpha-4}-(3-methylbutanoyl)-N{epsilon-7}-(6-[(4S)-4-carboxy-4-(17-carboxyheptadecanamido)butanamido]hexanoyl)[4A,7K,9E,10A,12S,18Q,22V,28Y,30W,31L]-hPYY(4-36)] (Isovaleryl-APEK([Ahx-γGlu-C18 diacid])PEADSSPEELQRYYVSLRHYYNWLTRQRY-NH2), for which the Ki in data set [1] came out at 1.36 nM. Moreover, in data set [2], the “Sol6” value was 9.9 mg/mL and the “Sol7” value amounted to 10.0 mg/mL.
